These results are taken from PMC8510013, “Active Flavonoids from Colubrina greggii var. greggii S. Watson against Clinical Isolates of Candida spp” (Molecules, 2021).

Values after ≈ are worked out from the molar mass of the structure shown. Where two headings read alike, the source gives them in different places.

Data set [1] relates to C. parapsilosis. Particulars: C. parapsilosis ATCC 20019; cited from earlier work.
Data set [2] is described as follows: In vitro cytotoxic assay on Vero cell line (MTT). Format: cell-based. Particulars: African green monkey, Vero cells, mean (n = 3) ± SD. How it is done:
The cytotoxicity assay was performed by the 3-(4,5-dimethylthiazol-2-yl) 2,5-diphenyltetrazolium bromide (MTT) assay as previously described. The Vero cell line was maintained in DMEM supplemented with 2% FBS, streptomycin, and penicillin at 1%. All cell cultures were incubated at 37 °C in a humidified atmosphere of 5% CO2. Cells were harvested, counted, and transferred into 96 well plates and incubated for 24 h prior to the addition of test compounds. Serial dilutions of test samples were prepared by dissolving compounds in DMSO followed by dilution with DMEM to yield the final DMSO concentration in the assay well as 1%. Stock solutions of fractions and compounds 1, 2, and 3 were prepared at […] and diluted further to yield concentrations ranging from 2000–15.6 μg/mL. The plates were incubated for 48 h. MTT (3-[4,5-dimethylthiazol-2-yl]-2,5-diphenyltetrazolium bromide) (5 mg) was dissolved in 1 mL of Phosphate Buffer Solution (PBS) and 10 μL of it was added to each of the 96 wells. The plates were incubated at 37 °C for 3 h. The solution in each well-containing media, unbound MTT and dead cells were removed by suction and 100 μL of DMSO was added to each well. The plates were then shaken and optical density was recorded using a microplate reader at 540 nm. Doxorubicin was used as positive control and DMSO as solvent control. The CC50 was determined as the concentration of extract required reducing cell viability by 50%, taking as 100%, the untreated cells. The experiments were performed in triplicate for each extract. In parallel, we performed the same experiment using untreated cells as a control.

The test system of data set [3] is C. tropicalis. Also on record: method as in doi:10.1016/j.phytol.2015.02.006. To be noted: C. tropicalis ATCC 750; cited from earlier work.
Data set [4] deals with C. parapsilosis. Kind of data set: Broth microdilution antifungal assay (CLSI M27-A2), clinical isolates. It is filed as cell-based, Candida parapsilosis. How it is done:
(§1) Clinical isolates were provided by the Microbiology Department of the Medical School, UANL: isolates 97 and 98 of C. albicans, isolates 83 and 84 of C. glabrata, isolates 95 and 96 of C. parapsilosis, isolates 105 and 166 of C. tropicalis, and isolates 137 and 168 of C. krusei.
(§2) Inoculates from the above-mentioned isolates were prepared and growing on Sabouraud agar. The extracts were tested using microdilution assay according to the protocol M27-A2 defined by the Clinical Laboratory Standards Institute. Two clinical isolates were used for each species of Candida, and each test was made in duplicate. Isolates 83 and 84 of C. glabrata are resistant strains to fluconazole. Serial two-fold dilutions ranging from 2 to 500 μg/mL were made for all extracts, fractions, and isolated compounds. The minimal inhibitory concentration (MIC) was defined as the lowest tested extract concentration that inhibits 100% of organism growth compared to the growth of the drug-free control.
On the technique in general: In broth dilution the organism is exposed to a series of concentrations in liquid medium.

In data set [5] the test system is C. krusei. To be noted: C. krusei ATCC 20298; cited from earlier work.
In the next data set the test system is Candida albicans. Nature of the data set: Broth microdilution antifungal assay (CLSI M27-A2), clinical isolates. It is filed as cell-based. How it is done: as §1, §2
A further data set deals with Candida glabrata. To be noted: cited from earlier work.
Data set [6] in a line: Brine shrimp lethality bioassay. Particulars: Artemia salina, in vivo; 24 h counts, mean (n = 3) ± SD. How it is done: In order to evaluate the toxicity of the compounds with antifungal activity obtained during separation, a test of lethality to Artemia salina brine shrimp was made. Concentrations of 1, 10, 100, and 500 ppm of each active fraction and each compound were tested. […] LC50 values greater than 200 ppm were considered non-toxic.

The test system of another data set is C. albicans. Particulars: cited from earlier work.
Data set [7] has as its system C. krusei. Kind of data set: Broth microdilution antifungal assay (CLSI M27-A2), clinical isolates. Format: cell-based, Candida krusei. How it is done: as §1, §2
Another data set relates to C. glabrata. The data set is described as above. It is filed as cell-based, Candida glabrata. How it is done: as §1, §2
In data set [8] the test system is C. tropicalis. The data set is described as above. Format: cell-based, Candida tropicalis. How it is done: as §1, §2
The mark [9] stands for this setting: Lodderomyces parapsilosis, Cp isolate 95, read-out: MIC.
Setting [10] is: Lodderomyces parapsilosis, Cp isolate 96, read-out: MIC.
Where [11] appears, read: Candida albicans, Ca isolate 97, read-out: MIC.
Setting [12] is: Pichia kudriavzevii, Ck isolate 137, read-out: MIC.
The mark [13] stands for this setting: Pichia kudriavzevii, Ck isolate 168, read-out: MIC.
The mark [14] stands for this setting: Nakaseomyces glabratus, C. glabrata, isolate not stated, read-out: MIC.
The mark [15] stands for this setting: Nakaseomyces glabratus, Cg isolate 83, fluconazole-resistant clinical isolate, read-out: MIC.
[16] abbreviates: Nakaseomyces glabratus, Cg isolate 84, fluconazole-resistant clinical isolate, read-out: MIC.
The mark [17] stands for this setting: Candida tropicalis, Ct isolate 105, read-out: MIC.

On to `C[C@@H]1O[C@@H](Oc2c(-c3ccc(O)c(O)c3)oc3cc(O)cc(O)c3c2=O)[C@H](O)[C@H](O)[C@H]1O` [Compound 1, quercetin 3-O-α-L-rhamnoside], for which the MIC (as a rule, the least concentration at which growth counts as inhibited) was “below 250 μg/mL” with C. parapsilosis [1]; “below 250 μg/mL” with C. tropicalis [3]; 125 µg/mL (≈ 279 µM) against C. parapsilosis [4] (Cp isolate 95); 125 µg/mL (≈ 279 µM) in the data set with C. parapsilosis [4] (Cp isolate 96); 125 µg/mL (≈ 279 µM) in the data set with C. parapsilosis [4] (Lodderomyces parapsilosis); “below 250 μg/mL” in the data set with C. krusei [5]. The MIC against Candida albicans (Ca isolate 97) was 500 µg/mL (≈ 1120 µM); against Candida albicans (Ca isolate 98), 500 µg/mL (≈ 1120 µM); in the data set with Candida albicans (Candida albicans) it was 500 µg/mL (≈ 1120 µM); with Candida glabrata (isolates 510, 493, 482, 531 of C. glabrata), 7.8 µg/mL (≈ 17.4 µM); with C. albicans (C. albicans ATCC 18804), “below 250 μg/mL”; in the data set with C. krusei [7] (Ck isolate 137), 500 µg/mL (≈ 1120 µM). The MIC in the data set with C. krusei [7] (Ck isolate 168) was 500 µg/mL (≈ 1120 µM); with C. krusei [7] (Pichia kudriavzevii), 500 µg/mL (≈ 1120 µM); against C. glabrata (Cg isolate 83, fluconazole-resistant clinical isolate), 16 µg/mL (≈ 35.7 µM); in the data set on C. glabrata (Cg isolate 84, fluconazole-resistant clinical isolate), 16 µg/mL (≈ 35.7 µM); in the data set with C. glabrata (Nakaseomyces glabratus) it was 16 µg/mL (≈ 35.7 µM); against C. tropicalis [8] (Candida tropicalis) it was over 500 µg/mL. Further, the minimum inhibitory concentration (MIC) against C. tropicalis [8] (Ct isolate 166) is given as over 500 µg/mL. The CC50 (in general, the concentration at which the toxic effect on the cells reaches its halfway point) at 48 h in [2] came out at 1660 ± 81 µg/mL (≈ 3700 µM). Moreover, the LC50 (in general, the concentration lethal to half of the exposed cells or organisms) at 24 h in data set [6] is over 500 µg/mL.

In data set [2], `C[C@@H]1O[C@@H](Oc2c(-c3ccc(O)c(O)c3)oc3cc(O)cc(O)c3c2=O)[C@H](O[C@@H]2OC[C@@H](O)[C@H](O)[C@H]2O)[C@H](O)[C@H]1O` [Compound 2, quercetin 3-O-α-L-rhamnopyranosyl-L-(2→1)-O-β-xylopyranoside] registered a CC50 at 48 h of over 2000 µg/mL. The MIC in the data set on C. parapsilosis [4] (setting [9]), in the data set on C. parapsilosis [4] (setting [10]), with Candida albicans (Ca isolate 98), with Candida albicans (setting [11]), in the data set on C. krusei [7] (setting [12]) and with C. krusei [7] (setting [13]) was over 500 µg/mL in each case. The MIC in the data set with C. glabrata (setting [14]) is 63 µg/mL (≈ 109 µM); in the data set with C. glabrata (setting [15]) it was 63 µg/mL (≈ 109 µM); in the data set on C. glabrata (setting [16]), 63 µg/mL (≈ 109 µM); in the data set with C. tropicalis [8] (setting [17]), over 500 µg/mL; with C. tropicalis [8] (Ct isolate 166) it was over 500 µg/mL. In addition, the LC50 at 24 h in [6] came to 322.8 ± 0.009 µg/mL (≈ 556 µM).

On to `C[C@@H]1O[C@@H](Oc2c(-c3ccc(O)cc3)oc3cc(O)cc(O)c3c2=O)[C@H](O[C@@H]2OC[C@@H](O)[C@H](O)[C@H]2O)[C@H](O)[C@H]1O` [Compound 3, kaempferol 3-O-α-L-rhamnopyranosyl-L-(2→1)-O-β-xylopyranoside], for which the CC50 at 48 h in [2] was over 2000 µg/mL. The MIC in the data set with C. parapsilosis [4] (setting [9]), with C. parapsilosis [4] (setting [10]), in the data set with Candida albicans (Ca isolate 98), with Candida albicans (setting [11]), in the data set on C. krusei [7] (setting [12]) and in the data set with C. krusei [7] (setting [13]) was over 500 µg/mL in each case. For the same compound, the MIC with C. glabrata (setting [14]) was 16 µg/mL (≈ 28.3 µM); in the data set on C. glabrata (setting [15]) it was 16 µg/mL (≈ 28.3 µM); with C. glabrata (setting [16]) it was 16 µg/mL (≈ 28.3 µM); in the data set with C. tropicalis [8] (setting [17]), over 500 µg/mL; against C. tropicalis [8] (Ct isolate 166), over 500 µg/mL. Also, the LC50 at 24 h in [6] is 254.8 ± 0.024 µg/mL (≈ 451 µM).

On to `OC(Cn1cncn1)(Cn1cncn1)c1ccc(F)cc1F` [Fluconazol, reference compound], for which the MIC in the data set on C. parapsilosis [4] (setting [9]) is 0.5 µg/mL (≈ 1.63 µM); in the data set with C. parapsilosis [4] (setting [10]), 1 µg/mL (≈ 3.27 µM); in the data set on Candida albicans (Ca isolate 98) it was 4 µg/mL (≈ 13.1 µM); in the data set on Candida albicans (setting [11]), 4 µg/mL (≈ 13.1 µM); in the data set with C. krusei [7] (setting [12]) it was 32 µg/mL (≈ 104 µM); in the data set on C. krusei [7] (setting [13]), 4 µg/mL (≈ 13.1 µM). Also, the MIC stood at 32 µg/mL (≈ 104 µM) in the data set on C. glabrata (setting [15]), 63 µg/mL (≈ 206 µM) in the data set with C. glabrata (setting [16]), 2 µg/mL (≈ 6.53 µM) in the data set with C. tropicalis [8] (setting [17]) and 2 µg/mL (≈ 6.53 µM) with C. tropicalis [8] (Ct isolate 166).

With `O=c1c(O)c(-c2ccc(O)cc2)oc2cc(O)cc(O)c12` [kaempferol, reference compound], the MIC in the data set on Candida glabrata (six clinical isolates of Candida glabrata including one resistant to fluconazole) is 31.5 µg/mL (≈ 110 µM).

Turning to “Kaempferol-3-O-rutinoside [reference compound]”, the minimum inhibitory concentration (MIC) with C. albicans (Candida albicans ATCC 14053 and ATCC10231) is 500 µg/mL.
